Source: patent US12435039B2, “Activators of caspase-8/c-FLIPL dimerization and their use in cancer therapy” (priority 2018, dated 2025)

Columns and labels:
[1] = test system: caspase-3/7 in Jurkat cells; experiment: Caspase-3/7 activity assay (Caspase-Glo 3/7), Jurkat cells; assay type: cell-based, human
Protocol: Caspase-3/7 activity assay—Caspase activity was measured by adding 50 μL of the Caspase-Glo®3/7 solution to each well. The luminescence intensity was analyzed by a microplate reader Infinite M200pro (Tecan, Switzerland) according to manufacturer's instructions (Caspase-Glo® 3/7 Assay, Promega, Germany). The caspase activity of non-treated cells was taken as one relative unit (RU). Every condition was performed in duplicate.

Jurkat cells = experiment: Cell viability quantification by ATP assay (CellTiter-Glo), Jurkat cells; assay type: cell-based, human
Excerpt: (§1) Cell lines—Human cervical cancer HeLa-CD95 cells (Neumann et al., 2010) (CD95-overexpressing cells) and HeLa-CD95-FL cells (CD95/c-FLIPL-overexpressing cells) were maintained in DMEM/Ham's (Merck Millipore, Germany) supplemented with 10% heat-inactivated fetal calf serum, 1% Penicillin-Streptomycin and 0.0001% Puromycin in 5% CO2. Human acute myeloid leukemia MV-4-11 cells and T lymphoma Jurkat cells were maintained in RPMI 1640 (Thermo Fisher Scientific Inc., USA) supplemented with 10% heat-inactivated fetal calf serum and 1% Penicillin-Streptomycin in 5% CO2.
(§2) Cell viability quantification by ATP assay—50 μL of the CellTiter-Glo® solution was added to each well and measurements were performed according to manufacturer's instructions (CellTiter-Glo® Luminescent Cell Viability Assay, Promega, Germany). The luminescence intensity was analyzed by a microplate reader Infinite M200pro (Tecan, Switzerland). The viability of untreated cells was taken as one relative unit (RU). Every condition was performed in duplicate.

c-FLIPL = experiment: Western Blot time-dependent analysis of c-FLIPL levels; assay type: cell-based, human; conditions: HeLa-CD95 cells; 20 μM FLIPinBγ up to 16 hours; first hours after administration
Protocol: (§3) Analysis of total cell lysates by Western Blot analysis—The Western Blot analysis of total cellular lysates was performed in accordance to the inventors' previous reports (Schmidt et al., 2015).

caspase-8 at the DISC = experiment: Caspase-8 activity assay on CD95 DISC-IPs (Caspase-Glo 8); assay type: biochemical, human; conditions: CD95 DISC-IPs from HeLa-CD95 cells; 20 μM FLIPinBγ two hours, CD95L 60 ng/mL three hours
Protocol: CD95 DISC-IP—The CD95 DISC-IP (Immunoprecipitation) from 5×10^6 HeLa-CD95 cells were done as described before (Pietkiewicz et al., 2015). In addition, DISC-IPs were washed four times with PBS, which was followed by Western Blot analysis or caspase-8 activity assays.
Caspase-8 activity assay—Each of protein A beads samples with CD95 DISC-IPs were resuspended in 95 μL of CHAPS-Buffer (50 mM HEPES pH=7.2; 50 mM NaCl; 10 mM EDTA; 5% Glycerin; 10 mM DTT, 0.1% CHAPS) and transferred into a 96-well plate. Caspase-8 activity was measured according to manufacturer's instructions (Caspase-Glo® 8 Assay, Promega, Germany). Every condition was performed in duplicate. The luminescence intensity was analyzed by a microplate reader Infinite M200pro (Tecan, Switzerland).

[2] = test system: HeLa-CD95-FL cells (CD95/c-FLIPL-overexpressing); experiment: Cell viability quantification by ATP assay (CellTiter-Glo), HeLa-CD95-FL cells; assay type: cell-based, human
Excerpt: as §1, §2

[3] = test system: procaspase-8, RIPK1 and PARP cleavage in HeLa-CD95 cells; experiment: Western Blot analysis of total cellular lysates, CD95L-induced cleavage; assay type: cell-based, human; conditions: 20 μM FLIPinBγ two hours, CD95L 60 ng/mL three hours
Protocol: as §3

HeLa-CD95 cells [4] = experiment: Cell death detection using IncuCyte live cell imaging (Cytotox Red); assay type: cell-based; conditions: 40 μM FLIPinBγ two hours
Protocol: Cell death detection using IncuCyte™ live cell imaging—HeLa-CD95 cells in a 96 well plate (5×10^3 cells/well) were pre-incubated with FLIPinBγ for 2 hours. […] To monitor cell death, cells were treated with IncuCyte™ Cytotox Red Reagent (1:4000) and Caspase-3/7 Green Apoptosis Assay Reagent (1:5000). The cells were imaged every hour by IncuCyte® ZOOM (Essen BioScience, Michigan) with a […] objective for a period of 6 hours. Every condition was performed in triplicate. Data were analyzed by the IncuCyte® ZOOM Software (2016A).

MV-4-11 cells = experiment: Cell viability quantification by ATP assay (CellTiter-Glo), MV-4-11 cells; assay type: cell-based, human; conditions: FLIPinBγ two hours, then CD95L 1000 ng/mL for 6 hours
Excerpt: as §1, §2

HeLa-CD95 cells [5] = experiment: Cell viability quantification by ATP assay (CellTiter-Glo), HeLa-CD95 cells; assay type: cell-based, human
Excerpt: as §1, §2

[6] = test system: caspase-3/7 in HeLa-CD95 cells; experiment: Caspase-3/7 activity by IncuCyte live cell imaging (Caspase-3/7 Green); assay type: cell-based, human
[7] = test system: caspase activity in HeLa-CD95 cells; experiment: Caspase activity in HeLa-CD95 cells (FLIPinB); assay type: cell-based, human; conditions: FLIPinB with CD95L/TRAIL

O=C(NCCOC(=O)c1cccc(S(=O)(=O)NCc2cccnc2)c1)c1ccc(-c2ccncc2)cc1 [FLIPinBγ, 2-[[4-(4-pyridyl)benzoyl]amino]ethyl 3-(3-pyridylmethylsulfamoyl)benzoate]
caspase-3/7 activity, FLIPinBγ/CD95L co-treatment ([1]; 20 μM FLIPinBγ two hours, CD95L 60 ng/mL four hours): increase | caspase-3/7 activity, FLIPinBγ/TRAIL co-treatment ([1]; 20 μM FLIPinBγ two hours, TRAIL 100 ng/mL three hours): increase | CD95L-induced loss of cell viability (Jurkat cells; FLIPinBγ two hours, then CD95L 60 ng/mL for 6 hours): efficiently promoted a loss of cell viability in a dose- and time-dependent manner | influence on c-FLIPL expression (c-FLIPL): no influence | caspase-8 activity at the DISC (caspase-8 at the DISC): increased | relative efficiency across cell lines ([2]; HeLa-CD95-FL cells overexpressing c-FLIPL): most efficient | CD95L-induced loss of cell viability ([2]; HeLa-CD95-FL cells, FLIPinBγ two hours, then CD95L 238 ng/mL for 6 hours): efficiently promoted a loss of cell viability in a dose- and time-dependent manner | CD95L-induced RIPK1 cleavage [3]: slight increase | CD95L-induced cleavage of PARP [3]: increases | CD95L-induced cleavage of procaspase-8 to p18 [3]: increases | CD95L-induced cell death (Cytotox Red live cell imaging) (HeLa-CD95 cells [4]; CD95L 50 ng/mL, in the first hours): enhanced | TRAIL-induced cell death (Cytotox Red live cell imaging) (HeLa-CD95 cells [4]; TRAIL 100 ng/mL, most prominent in the first hours): enhanced | CD95L-induced loss of cell viability (MV-4-11 cells): efficiently promoted a loss of cell viability in a dose- and time-dependent manner | CD95L-induced loss of cell viability (HeLa-CD95 cells [5]; FLIPinBγ two hours, then CD95L 60 ng/mL for 22 hours): efficiently promoted a loss of cell viability in a dose- and time-dependent manner | caspase-3/7 activity in single cells, FLIPinBγ/TRAIL co-administration [6]: increase | caspase-3/7 activity in single cells, FLIPinBγ/CD95L co-administration ([6]; 40 μM FLIPinBγ two hours, CD95L 50 ng/mL): increase

O=C(NCCOC(=O)c1cccc(S(=O)(=O)NCc2ccccc2)c1)c1ccc(-c2ccccc2)cc1 [FLIPinB, 2-[(4-phenylbenozyl)amino]ethyl 3-(benzylsulfamoyl)benzoate]
caspase activity ([1]; FLIPinB with CD95L/TRAIL): increased | initial experimental screening of FLIPins: viability upon FLIPin/CD95L vs CD95L-only (Jurkat cells): showed the best properties in the initial selection | CD95L-induced loss of cell viability (Jurkat cells; FLIPinB plus CD95L vs CD95L only): enhanced | TRAIL-induced loss of cell viability (Jurkat cells; FLIPinB plus TRAIL): enhanced | resistance of HeLa-CD95-FL cells to CD95L ([2]; HeLa-CD95-FL cells, FLIPinB plus CD95L): allowed to overcome the resistance | caspase activity [7]: increased | CD95L-induced loss of cell viability (HeLa-CD95 cells [5]; FLIPinB plus CD95L): enhanced | TRAIL-induced loss of cell viability (HeLa-CD95 cells [5]; FLIPinB plus TRAIL): enhanced
